Reference: patent publication US20230255953A1, “USE OF ROLUPERIDONE IN PREVENTING RELAPSE IN SCHIZOPHRENIA PATIENTS” (Minerva Neurosciences, Inc., priority 2022, published 2023)

Test system: patients with negative symptoms of schizophrenia
Test: Integrated analysis of Studies #1 and #2 (pooled ITT): PANSS-derived scores (NSFS, total, positive and negative subscales), DB, OL and whole study
Format: in vivo, human
Parameters: key to NSFS Score change from Baseline, Median: change from Baseline in PANSS NSFS points; higher score = more severe
Conditions: pooled ITT; for NSFS Score change from Baseline, Median / PANSS Negative Subscale Score change from Baseline, Mean (SD) / PANSS Negative Subscale Score change from Baseline, Median / PANSS Total Score change from Baseline, Mean (SD) / PANSS Total Score change from Baseline, Median / PANSS Positive Subscale Score change from Baseline, Mean (SD) / PANSS Positive Subscale Score change from Baseline, Median / NSFS Score change from Baseline, Mean (SD): Roluperidone Total; for NSFS Score change from Baseline, Median / PANSS Negative Subscale Score change from Baseline, Mean (SD) / PANSS Negative Subscale Score change from Baseline, Median / PANSS Total Score change from Baseline, Mean (SD) / PANSS Total Score change from Baseline, Median / NSFS Score change from Baseline, Mean (SD): DB; for NSFS Change from Active BL to Week 24, Mean (SD) / NSFS Change from Active BL to Week 24, Median / NSFS Change from Active BL to Week 52, Mean (SD) / NSFS Change from Active BL to Week 52, Median / NSFS Change from Active BL to Week 54, Mean (SD) / NSFS Change from Active BL to Week 54, Median / NSFS Change from Open-label BL to Week 24, Mean (SD) / NSFS Change from Open-label BL to Week 24, Median / NSFS Change from Open-label BL to Week 52, Mean (SD) / NSFS Change from Open-label BL to Week 52, Median / NSFS Change from Open-label BL to Week 54, Mean (SD) / NSFS Change from Open-label BL to Week 54, Median / NSFS Change from Study BL to Week 24, Mean (SD) / NSFS Change from Study BL to Week 24, Median / NSFS Change from Study BL to Week 52, Mean (SD) / NSFS Change from Study BL to Week 52, Median / NSFS Change from Study BL to Week 54, Mean (SD) / NSFS Change from Study BL to Week 54, Median: Roluperidone at Any Time
Description: The primary integrated analysis of the efficacy of Roluperidone compared with placebo for the treatment of negative symptoms of schizophrenia is based on the change from Baseline in the PANSS Marder's negative symptoms factor score (in this document referred to as NSFS) to Week 12. Efficacy is also supported by the analysis of change from Baseline in the PSP Total score and the CGI-S to Week 12.
The PANSS was assessed at the time points described in Table 4.
The PANSS-derived endpoints used in these studies and the integrated analyses are described in Table 5A and a summary of the individual PANSS items used by physicians and clinicians to measure the severity of the symptoms in a schizophrenia patient is provided in Table 5B. The scale is divided into three parts, a positive scale, which provides a “PANSS positive subscore”, a negative scale, which provides a “PANSS negative subscore”, and general psychopathology scale. The sum of these three parts provides a PANSS total score, which ranges from 30 to 210 (where higher scores indicate more severe symptoms). (See Kay, S. R., et al. “The positive and negative syndrome scale (PANSS) for schizophrenia,” Schizophr Bulletin, 13(2), 261-276 (1987) and Gopal, S., et al. “Improvement of Negative Symptoms in Schizophrenia with Paliperidone Palmitate 1-Month and 3-Month Long-Acting Injectables: Results from a Phase 3 Non-Inferiority Study” Neuropsychiatric Disease and Treatment, 681-690, DOI: 10.2147/NDT.5226296, both of which are incorporated by reference.)
The Efficacy data from Study Nos. 1 and 2 were pooled. The majority of patients in the pooled ITT population completed the DB period (502 patients overall, 66.3%), with similar rates in each treatment group (placebo: 69.8%, 32 mg Roluperidone: 65.3%, and 64 mg Roluperidone: 63.8%) (Table 12). The majority (62.7%) of those who completed the DB period entered the OL period. The most common reason for discontinuation during the DB period among patients overall was withdrawal of consent (15.6%), followed by adverse events (7.3%) and lack of efficacy (5.4%) (Table 12). […] Approximately twice as many patients in the Roluperidone groups (32 mg: 8.5%; 64 mg: 9.1%) discontinued due to adverse events compared with patients in the placebo group (4.3%). More patients in the placebo group discontinued due to lack of efficacy (6.7%) than in the Roluperidone groups (32 mg: 4.4%; 64 mg: 5.1%). The low number of patients who discontinued due to lack of efficacy or withdrawal of consent probably reflects a low level of worsening of positive symptoms.
The integrated analysis supporting the efficacy of Roluperidone as a treatment for the negative symptoms of schizophrenia in adults is presented below.

For “1H-Isoindol-1-one,2-[ [1-[2-(4-fluorophenyl)-2-oxoethyl]-4-piperidinyl]methyl]-2,3-dihydro-, hydrochloride, hydrate (1:1:2) [Roluperidone]”, the “NSFS Score change from Baseline, Median” value (Week 4) was −2.0, the “PANSS Negative Subscale Score change from Baseline, Mean (SD)” value (Week 4) was −2.5 (2.75) and the “PANSS Negative Subscale Score change from Baseline, Median” value (Week 4) was −2.0. The “PANSS Total Score change from Baseline, Mean (SD)” value (“PANSS Total Score change … (SD)” below) (Week 4) was −4.8 (7.13), the “PANSS Total Score change from Baseline, Median” value (Week 4) was −5.0 and the “PANSS Positive Subscale Score change from Baseline, Mean (SD)” value (Week 4) was −0.4 (2.49). For the same substance, the “PANSS Positive Subscale Score change from Baseline, Median” value (Week 4) was 0.0, the “NSFS Score change from Baseline, Mean (SD)” value (Week 8) was −3.4 (3.25) and the “NSFS Score change from Baseline, Median” value (Week 8) was −3.0. For the same substance, the “PANSS Negative Subscale Score change from Baseline, Mean (SD)” value (Week 8) was −3.6 (3.38), the “PANSS Negative Subscale Score change from Baseline, Median” value (Week 8) was −3.0 and the “PANSS Total Score change … (SD)” value (Week 8) was −6.5 (8.35). For the same substance, the “PANSS Total Score change from Baseline, Median” value (Week 8) was −6.0, the “PANSS Positive Subscale Score change from Baseline, Mean (SD)” value (Week 8) was −0.5 (2.55) and the “PANSS Positive Subscale Score change from Baseline, Median” value (Week 8) was 0.0. For the same substance, the “NSFS Score change from Baseline, Mean (SD)” value (Week 12) was −3.8 (3.39), the “NSFS Score change from Baseline, Median” value (Week 12) was −4.0 and the “PANSS Negative Subscale Score change from Baseline, Mean (SD)” value (Week 12) was −4.0 (3.59). For the same substance, the “PANSS Negative Subscale Score change from Baseline, Median” value (Week 12) was −3.0, the “PANSS Total Score change … (SD)” value (Week 12) was −7.3 (8.66) and the “PANSS Total Score change from Baseline, Median” value (Week 12) was −7.0. The “PANSS Positive Subscale Score change from Baseline, Mean (SD)” value (Week 12) was −0.6 (2.64), the “PANSS Positive Subscale Score change from Baseline, Median” value (Week 12) was 0.0 and the “NSFS Change from Active BL to Week 24, Mean (SD)” value (32 mg) was −3.7 (3.45). The “NSFS Change from Active BL to Week 24, Median” value (32 mg) was −4.0, the “NSFS Change from Active BL to Week 52, Mean (SD)” value (32 mg) was −5.7 (3.95) and the “NSFS Change from Active BL to Week 52, Median” value (32 mg) was −5.0. For the same substance, the “NSFS Change from Active BL to Week 54, Mean (SD)” value (32 mg) was −5.7 (3.55), the “NSFS Change from Active BL to Week 54, Median” value (32 mg) was −6.0 and the “NSFS Change from Open-label BL to Week 24, Mean (SD)” value (32 mg) was −1.4 (2.51). The “NSFS Change from Open-label BL to Week 24, Median” value (32 mg) was −1.0, the “NSFS Change from Open-label BL to Week 52, Mean (SD)” value (32 mg) was −3.3 (3.23) and the “NSFS Change from Open-label BL to Week 52, Median” value (32 mg) was −3.0. For the same substance, the “NSFS Change from Open-label BL to Week 54, Mean (SD)” value (32 mg) was −3.3 (3.45), the “NSFS Change from Open-label BL to Week 54, Median” value (32 mg) was −3.0 and the “NSFS Change from Study BL to Week 24, Mean (SD)” value (32 mg) was −4.9 (3.61). The “NSFS Change from Study BL to Week 24, Median” value (32 mg) was −5.0, the “NSFS Change from Study BL to Week 52, Mean (SD)” value (32 mg) was −6.9 (3.95) and the “NSFS Change from Study BL to Week 52, Median” value (32 mg) was −6.0. For the same substance, the “NSFS Change from Study BL to Week 54, Mean (SD)” value (32 mg) was −6.8 (3.80), the “NSFS Change from Study BL to Week 54, Median” value (32 mg) was −6.0 and the “NSFS Change from Active BL to Week 24, Mean (SD)” value (64 mg) was −4.2 (3.92). The “NSFS Change from Active BL to Week 24, Median” value (64 mg) was −4.0, the “NSFS Change from Active BL to Week 52, Mean (SD)” value (64 mg) was −6.7 (4.23) and the “NSFS Change from Active BL to Week 52, Median” value (64 mg) was −7.0. The “NSFS Change from Active BL to Week 54, Mean (SD)” value (64 mg) was −6.6 (4.40), the “NSFS Change from Active BL to Week 54, Median” value (64 mg) was −7.0 and the “NSFS Change from Open-label BL to Week 24, Mean (SD)” value (64 mg) was −1.6 (3.02). The “NSFS Change from Open-label BL to Week 24, Median” value (64 mg) was −1.0, the “NSFS Change from Open-label BL to Week 52, Mean (SD)” value (64 mg) was −4.3 (3.77) and the “NSFS Change from Open-label BL to Week 52, Median” value (64 mg) was −4.0. For the same substance, the “NSFS Change from Open-label BL to Week 54, Mean (SD)” value (64 mg) was −4.0 (3.88), the “NSFS Change from Open-label BL to Week 54, Median” value (64 mg) was −4.0 and the “NSFS Change from Study BL to Week 24, Mean (SD)” value (64 mg) was −5.0 (3.49). For the same substance, the “NSFS Change from Study BL to Week 24, Median” value (64 mg) was −5.0, the “NSFS Change from Study BL to Week 52, Mean (SD)” value (64 mg) was −7.5 (3.61) and the “NSFS Change from Study BL to Week 52, Median” value (64 mg) was −7.0. For the same substance, the “NSFS Change from Study BL to Week 54, Mean (SD)” value (64 mg) was −7.4 (3.81), the “NSFS Change from Study BL to Week 54, Median” value (64 mg) was −7.0 and the “NSFS Change from Active BL to Week 24, Mean (SD)” value (Total) was −5.1 (3.52). For the same substance, the “NSFS Change from Active BL to Week 24, Median” value (Total) was −5.0, the “NSFS Change from Active BL to Week 52, Mean (SD)” value (Total) was −7.0 (3.84) and the “NSFS Change from Active BL to Week 52, Median” value (Total) was −6.0. For the same substance, the “NSFS Change from Active BL to Week 54, Mean (SD)” value (Total) was −7.0 (3.56), the “NSFS Change from Active BL to Week 54, Median” value (Total) was −7.0 and the “NSFS Change from Open-label BL to Week 24, Mean (SD)” value (Total) was −1.3 (2.56). The “NSFS Change from Open-label BL to Week 24, Median” value (Total) was −1.0, the “NSFS Change from Open-label BL to Week 52, Mean (SD)” value (Total) was −3.2 (2.99) and the “NSFS Change from Open-label BL to Week 52, Median” value (Total) was −3.0. The “NSFS Change from Open-label BL to Week 54, Mean (SD)” value (Total) was −3.2 (3.29), the “NSFS Change from Open-label BL to Week 54, Median” value (Total) was −3.0 and the “NSFS Change from Study BL to Week 24, Mean (SD)” value (Total) was −5.1 (3.52). The “NSFS Change from Study BL to Week 24, Median” value (Total) was −5.0, the “NSFS Change from Study BL to Week 52, Mean (SD)” value (Total) was −7.0 (3.84) and the “NSFS Change from Study BL to Week 52, Median” value (Total) was −6.0. For the same substance, the “NSFS Change from Study BL to Week 54, Mean (SD)” value (Total) was −7.0 (3.56) and the “NSFS Change from Study BL to Week 54, Median” value (Total) was −7.0.
